Among the targets are ABL1 (human) (UniProt P00519); GSK3B (human) (UniProt P49841); PRKCG (human) (UniProt P05129); PTK6 (human) (UniProt Q13882); SRPK1 (human) (UniProt Q96SB4); STK16 (human) (UniProt O75716); STK33 (human) (UniProt Q9BYT3); TEK (human) (UniProt Q02763); ZAP70 (human) (UniProt P43403); EIF2AK3 (human) (UniProt Q9NZJ5); IRAK1 (human) (UniProt P51617); TLK1 (human) (UniProt Q9UKI8).

Common to all, as to assay: radiometric filter-binding kinase assay
In experiment [1] the test system is OXSR1 (human), O95747 [T185E].
Sequence of OXSR1 (human), O95747 [T185E] (O95747 whole entry T185E, looked up): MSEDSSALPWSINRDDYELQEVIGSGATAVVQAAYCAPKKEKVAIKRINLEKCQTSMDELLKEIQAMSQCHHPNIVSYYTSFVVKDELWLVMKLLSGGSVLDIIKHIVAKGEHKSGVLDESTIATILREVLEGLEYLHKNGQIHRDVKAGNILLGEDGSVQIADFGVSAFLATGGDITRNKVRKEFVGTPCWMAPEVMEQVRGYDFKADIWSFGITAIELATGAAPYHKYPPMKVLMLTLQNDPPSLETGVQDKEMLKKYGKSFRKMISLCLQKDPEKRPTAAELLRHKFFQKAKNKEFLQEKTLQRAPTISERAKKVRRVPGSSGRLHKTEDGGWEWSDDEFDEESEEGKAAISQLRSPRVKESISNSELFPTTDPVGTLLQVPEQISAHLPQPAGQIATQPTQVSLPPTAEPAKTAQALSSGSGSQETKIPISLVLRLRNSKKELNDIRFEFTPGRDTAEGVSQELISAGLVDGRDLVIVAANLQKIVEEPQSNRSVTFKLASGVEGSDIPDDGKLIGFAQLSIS

As a reminder, the residual activity is the signal under treatment as a percentage of the control signal.

Sequence of IRAK1 (human) (P51617 whole entry, looked up): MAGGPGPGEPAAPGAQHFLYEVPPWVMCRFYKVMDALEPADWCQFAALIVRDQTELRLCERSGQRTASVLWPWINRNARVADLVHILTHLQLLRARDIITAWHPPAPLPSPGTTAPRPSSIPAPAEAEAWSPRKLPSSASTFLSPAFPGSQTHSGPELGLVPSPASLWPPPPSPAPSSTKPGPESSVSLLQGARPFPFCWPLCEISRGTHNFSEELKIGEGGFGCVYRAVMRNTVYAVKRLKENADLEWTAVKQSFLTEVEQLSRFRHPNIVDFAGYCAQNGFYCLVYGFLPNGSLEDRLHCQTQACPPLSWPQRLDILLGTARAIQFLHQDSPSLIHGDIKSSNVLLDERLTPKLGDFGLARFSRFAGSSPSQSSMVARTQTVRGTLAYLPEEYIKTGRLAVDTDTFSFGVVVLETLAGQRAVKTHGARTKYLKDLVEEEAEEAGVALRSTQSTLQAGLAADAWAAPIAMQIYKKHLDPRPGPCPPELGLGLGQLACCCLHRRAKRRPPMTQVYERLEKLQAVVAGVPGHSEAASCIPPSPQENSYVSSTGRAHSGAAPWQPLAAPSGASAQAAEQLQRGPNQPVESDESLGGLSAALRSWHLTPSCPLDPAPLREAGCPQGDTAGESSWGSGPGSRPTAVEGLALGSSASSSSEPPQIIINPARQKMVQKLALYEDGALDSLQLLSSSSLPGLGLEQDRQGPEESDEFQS
Sequence of PTK6 (human) (Q13882 whole entry, looked up): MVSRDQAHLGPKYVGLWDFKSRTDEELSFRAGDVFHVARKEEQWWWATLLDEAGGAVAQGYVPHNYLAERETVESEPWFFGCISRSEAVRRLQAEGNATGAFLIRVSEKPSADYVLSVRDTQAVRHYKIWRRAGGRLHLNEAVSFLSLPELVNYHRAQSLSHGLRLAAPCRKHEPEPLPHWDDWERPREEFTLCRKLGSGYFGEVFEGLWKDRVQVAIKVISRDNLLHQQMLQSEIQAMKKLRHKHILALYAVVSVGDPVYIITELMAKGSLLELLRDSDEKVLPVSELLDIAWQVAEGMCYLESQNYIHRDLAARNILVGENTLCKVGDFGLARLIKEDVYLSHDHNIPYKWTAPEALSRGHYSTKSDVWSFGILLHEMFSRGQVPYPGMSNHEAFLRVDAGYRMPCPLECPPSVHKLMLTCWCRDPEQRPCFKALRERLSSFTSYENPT
Sequence of ZAP70 (human) (P43403 whole entry, looked up): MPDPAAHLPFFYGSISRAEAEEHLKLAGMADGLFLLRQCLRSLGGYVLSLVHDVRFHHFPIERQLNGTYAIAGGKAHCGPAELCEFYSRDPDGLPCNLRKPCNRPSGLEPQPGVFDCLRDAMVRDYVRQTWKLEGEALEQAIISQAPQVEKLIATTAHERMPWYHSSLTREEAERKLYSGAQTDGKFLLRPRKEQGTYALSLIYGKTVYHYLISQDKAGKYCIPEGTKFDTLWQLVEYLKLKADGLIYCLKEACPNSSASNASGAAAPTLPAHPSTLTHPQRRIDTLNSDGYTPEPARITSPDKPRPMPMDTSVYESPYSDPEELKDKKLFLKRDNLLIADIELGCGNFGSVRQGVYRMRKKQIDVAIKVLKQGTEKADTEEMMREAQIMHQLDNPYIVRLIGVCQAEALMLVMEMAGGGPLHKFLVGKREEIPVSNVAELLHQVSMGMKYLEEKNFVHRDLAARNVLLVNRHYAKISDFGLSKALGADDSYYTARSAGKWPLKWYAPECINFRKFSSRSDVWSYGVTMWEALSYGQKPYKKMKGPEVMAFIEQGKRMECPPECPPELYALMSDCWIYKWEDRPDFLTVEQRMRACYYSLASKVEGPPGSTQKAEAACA
Sequence of TEK (human) (Q02763 whole entry, looked up): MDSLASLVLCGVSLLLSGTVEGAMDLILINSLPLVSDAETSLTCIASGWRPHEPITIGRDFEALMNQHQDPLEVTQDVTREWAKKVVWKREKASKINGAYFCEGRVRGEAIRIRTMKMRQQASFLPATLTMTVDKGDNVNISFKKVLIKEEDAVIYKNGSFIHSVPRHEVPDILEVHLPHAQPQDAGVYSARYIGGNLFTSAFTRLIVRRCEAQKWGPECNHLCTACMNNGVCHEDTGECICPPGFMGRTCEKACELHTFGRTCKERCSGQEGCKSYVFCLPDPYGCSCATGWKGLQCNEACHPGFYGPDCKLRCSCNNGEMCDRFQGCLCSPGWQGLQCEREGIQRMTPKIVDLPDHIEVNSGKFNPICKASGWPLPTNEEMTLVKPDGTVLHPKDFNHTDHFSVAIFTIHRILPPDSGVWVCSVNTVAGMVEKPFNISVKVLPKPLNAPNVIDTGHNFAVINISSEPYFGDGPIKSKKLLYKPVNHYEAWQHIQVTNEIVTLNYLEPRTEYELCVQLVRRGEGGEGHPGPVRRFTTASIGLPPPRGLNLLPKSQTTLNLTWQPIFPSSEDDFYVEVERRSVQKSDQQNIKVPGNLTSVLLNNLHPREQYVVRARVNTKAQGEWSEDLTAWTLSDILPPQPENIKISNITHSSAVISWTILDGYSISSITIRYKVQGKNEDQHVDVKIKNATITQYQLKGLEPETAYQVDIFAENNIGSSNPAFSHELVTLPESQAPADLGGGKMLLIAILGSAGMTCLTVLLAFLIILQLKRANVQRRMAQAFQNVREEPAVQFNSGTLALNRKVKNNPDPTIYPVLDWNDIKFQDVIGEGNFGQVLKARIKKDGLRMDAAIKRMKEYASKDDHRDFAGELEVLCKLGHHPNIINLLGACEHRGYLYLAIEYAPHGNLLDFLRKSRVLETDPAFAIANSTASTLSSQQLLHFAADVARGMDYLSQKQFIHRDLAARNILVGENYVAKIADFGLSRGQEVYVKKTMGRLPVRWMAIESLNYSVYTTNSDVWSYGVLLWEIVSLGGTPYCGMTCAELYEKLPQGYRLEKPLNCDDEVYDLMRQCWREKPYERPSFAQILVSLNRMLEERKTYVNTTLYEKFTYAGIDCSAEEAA
Sequence of GSK3B (human) (P49841 whole entry, looked up): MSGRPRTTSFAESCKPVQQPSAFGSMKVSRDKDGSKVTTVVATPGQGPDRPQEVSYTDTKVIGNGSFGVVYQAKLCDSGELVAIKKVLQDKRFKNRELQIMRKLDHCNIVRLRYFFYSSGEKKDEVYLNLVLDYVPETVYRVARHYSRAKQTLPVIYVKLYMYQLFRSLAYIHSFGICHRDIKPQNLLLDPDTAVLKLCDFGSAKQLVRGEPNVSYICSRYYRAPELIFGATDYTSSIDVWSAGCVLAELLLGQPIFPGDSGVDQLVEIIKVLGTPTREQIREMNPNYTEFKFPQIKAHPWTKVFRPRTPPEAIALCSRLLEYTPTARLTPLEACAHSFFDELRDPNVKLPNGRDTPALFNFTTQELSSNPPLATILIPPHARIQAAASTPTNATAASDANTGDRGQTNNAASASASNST
Sequence of STK16 (human) (O75716 whole entry, looked up): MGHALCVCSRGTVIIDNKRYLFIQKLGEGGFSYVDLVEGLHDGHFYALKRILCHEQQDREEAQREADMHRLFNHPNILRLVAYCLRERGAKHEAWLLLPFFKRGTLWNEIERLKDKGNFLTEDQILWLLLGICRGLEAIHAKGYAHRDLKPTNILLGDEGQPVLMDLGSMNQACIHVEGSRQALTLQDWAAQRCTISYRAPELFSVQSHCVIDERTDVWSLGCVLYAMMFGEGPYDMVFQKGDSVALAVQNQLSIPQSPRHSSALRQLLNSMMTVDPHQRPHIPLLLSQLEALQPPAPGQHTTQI

For `CCCCCc1ccc(/C=C/[C@H](O)[C@@H](CO)NC)cc1`, the residual activity at ABL1 (human) (compound 0.1 µM) turned out to be 110%; at ABL1 (human) (compound 1.0 µM) it was 106%; at ABL1 (human) (compound 10.0 µM), 109%; on GSK3B (human) (compound 0.1 µM), 83%; at GSK3B (human) (compound 1.0 µM), 88%; at GSK3B (human) (compound 10.0 µM), 71%. The residual activity came out at 101% on PRKCG (human) (compound 0.1 µM); 109% at PRKCG (human) (compound 1.0 µM); 96% on PRKCG (human) (compound 10.0 µM); 104% at PTK6 (human) (compound 0.1 µM); 93% at PTK6 (human) (compound 1.0 µM); 104% at PTK6 (human) (compound 10.0 µM). The residual activity was found to be 92% at SRPK1 (human) (compound 0.1 µM); 89% at SRPK1 (human) (compound 1.0 µM); 83% on SRPK1 (human) (compound 10.0 µM); 104% at STK16 (human) (compound 0.1 µM); 98% on STK16 (human) (compound 1.0 µM); 100% at STK16 (human) (compound 10.0 µM). Moreover, the residual activity on STK33 (human) (compound 0.1 µM) was found to be 100%; on STK33 (human) (compound 1.0 µM), 100%; at STK33 (human) (compound 10.0 µM), 89%; on TEK (human) (compound 0.1 µM) it was 141%; at TEK (human) (compound 1.0 µM), 118%; at TEK (human) (compound 10.0 µM), 113%. Also, the residual activity turned out to be 116% at ZAP70 (human) (compound 0.1 µM), 106% at ZAP70 (human) (compound 1.0 µM) and 92% on ZAP70 (human) (compound 10.0 µM).
For the compound `Cc1nc(-c2ccc(OCC(C)C)c(C#N)c2)sc1C(=O)O`, the residual activity came out at 96% at ABL1 (human) (compound 1.0 µM); 89% on ABL1 (human) (compound 10.0 µM); 94% on EIF2AK3 (human) (compound 1.0 µM); 88% at EIF2AK3 (human) (compound 10.0 µM); 90% at GSK3B (human) (compound 1.0 µM); 74% at GSK3B (human) (compound 10.0 µM). The residual activity amounted to 106% at IRAK1 (human) (compound 1.0 µM); 102% on IRAK1 (human) (compound 10.0 µM); 96% in experiment [1] (compound 1.0 µM); 80% in experiment [1] (compound 10.0 µM); 81% at PRKCG (human) (compound 1.0 µM); 85% on PRKCG (human) (compound 10.0 µM). The residual activity turned out to be 99% on PTK6 (human) (compound 1.0 µM); 99% at SRPK1 (human) (compound 1.0 µM); 89% on SRPK1 (human) (compound 10.0 µM); 46% at STK16 (human) (compound 1.0 µM); 47% at STK16 (human) (compound 10.0 µM); 101% on STK33 (human) (compound 1.0 µM). The residual activity on STK33 (human) (compound 10.0 µM) was 89%; at TEK (human) (compound 1.0 µM), 78%; at TEK (human) (compound 10.0 µM), 67%; at TLK1 (human) (compound 1.0 µM), 86%; on TLK1 (human) (compound 10.0 µM), 94%; on ZAP70 (human) (compound 1.0 µM) it was 104%.
Regarding `CCOC(=O)c1ccc(N2NC(=O)/C(=C/c3ccc([N+](=O)[O-])o3)C2=O)cc1`, the residual activity on ABL1 (human) (compound 10.0 µM) was found to be 107%; on EIF2AK3 (human) (compound 10.0 µM), 83%; on GSK3B (human) (compound 10.0 µM) it was 106%; at IRAK1 (human) (compound 10.0 µM), 84%; in [1] (compound 10.0 µM), 115%; at PRKCG (human) (compound 10.0 µM) it was 99%. Besides, the residual activity on PTK6 (human) (compound 10.0 µM) is 79%; on SRPK1 (human) (compound 10.0 µM) it was 76%; at STK33 (human) (compound 10.0 µM), 119%; at TEK (human) (compound 10.0 µM), 128%; on TLK1 (human) (compound 10.0 µM) it was 108%; at ZAP70 (human) (compound 10.0 µM) it was 95%.
Take `O=C(NOCC(O)CO)c1ccc(F)c(F)c1Nc1ccc(I)cc1Cl` (centres undefined): the residual activity is 101% at ABL1 (human) (compound 1.0 µM); 107% at ABL1 (human) (compound 10.0 µM); 89% at GSK3B (human) (compound 1.0 µM); 89% on GSK3B (human) (compound 10.0 µM); 81% at IRAK1 (human) (compound 1.0 µM); 79% on IRAK1 (human) (compound 10.0 µM). Moreover, the residual activity in experiment [1] (compound 10.0 µM) stood at 87%; at PRKCG (human) (compound 1.0 µM), 110%; on PRKCG (human) (compound 10.0 µM), 100%; on PTK6 (human) (compound 1.0 µM) it was 126%; on PTK6 (human) (compound 10.0 µM), 110%; at SRPK1 (human) (compound 1.0 µM) it was 95%. Also, the residual activity at SRPK1 (human) (compound 10.0 µM) is 86%; on STK16 (human) (compound 1.0 µM), 87%; on STK16 (human) (compound 10.0 µM), 86%; at STK33 (human) (compound 1.0 µM) it was 92%; at STK33 (human) (compound 10.0 µM), 90%; at TEK (human) (compound 1.0 µM), 106%. The residual activity on TEK (human) (compound 10.0 µM) was determined as 87%; on TLK1 (human) (compound 1.0 µM), 95%; at TLK1 (human) (compound 10.0 µM) it was 100%; on ZAP70 (human) (compound 1.0 µM), 77%; at ZAP70 (human) (compound 10.0 µM) it was 98%.
On to `c1ccc2c(-c3cnn4cc(-c5ccc(N6CCNCC6)cc5)cnc34)ccnc2c1`, for which the residual activity on ABL1 (human) (compound 0.1 µM) worked out at 43%; at ABL1 (human) (compound 1.0 µM) it was 6%; at ABL1 (human) (compound 10.0 µM), 4%; on GSK3B (human) (compound 0.1 µM), 81%; at GSK3B (human) (compound 1.0 µM) it was 83%; at GSK3B (human) (compound 10.0 µM), 62%. The residual activity was 99% on PRKCG (human) (compound 0.1 µM); 97% at PRKCG (human) (compound 1.0 µM); 92% on PRKCG (human) (compound 10.0 µM); 78% at PTK6 (human) (compound 0.1 µM); 21% at PTK6 (human) (compound 1.0 µM); 5% at PTK6 (human) (compound 10.0 µM). The residual activity on SRPK1 (human) (compound 0.1 µM) amounted to 95%; on SRPK1 (human) (compound 1.0 µM), 116%; on SRPK1 (human) (compound 10.0 µM) it was 79%; on STK16 (human) (compound 0.1 µM), 97%; at STK16 (human) (compound 1.0 µM) it was 98%; on STK16 (human) (compound 10.0 µM), 84%. Besides, the residual activity on STK33 (human) (compound 0.1 µM) came out at 81%; at STK33 (human) (compound 1.0 µM), 44%; on STK33 (human) (compound 10.0 µM) it was 11%; on TEK (human) (compound 0.1 µM) it was 102%; on TEK (human) (compound 1.0 µM), 86%; on TEK (human) (compound 10.0 µM), 30%. In addition, the residual activity came out at 86% at ZAP70 (human) (compound 0.1 µM), 69% at ZAP70 (human) (compound 1.0 µM) and 101% at ZAP70 (human) (compound 10.0 µM).
For `O=C(NCCCNc1nc(Nc2cccc(CN3CCOCC3)c2)ncc1C1CC1)C1CCC1`, the residual activity was 92% on EIF2AK3 (human) (compound 0.1 µM); 86% on EIF2AK3 (human) (compound 1.0 µM); 95% at GSK3B (human) (compound 0.1 µM); 96% on GSK3B (human) (compound 1.0 µM); 96% at IRAK1 (human) (compound 0.1 µM); 79% at IRAK1 (human) (compound 1.0 µM). Besides, the residual activity in [1] (compound 0.1 µM) came to 83%; in [1] (compound 1.0 µM), 94%; on PRKCG (human) (compound 0.1 µM), 88%; on PRKCG (human) (compound 1.0 µM), 98%; at PTK6 (human) (compound 0.1 µM) it was 96%; on PTK6 (human) (compound 1.0 µM), 110%. The residual activity came to 86% at SRPK1 (human) (compound 0.1 µM); 101% on SRPK1 (human) (compound 1.0 µM); 104% on STK16 (human) (compound 1.0 µM); 80% on STK33 (human) (compound 0.1 µM); 52% on STK33 (human) (compound 1.0 µM); 95% on TEK (human) (compound 0.1 µM). In addition, the residual activity on TEK (human) (compound 1.0 µM) stood at 81%; on TLK1 (human) (compound 0.1 µM) it was 90%; at TLK1 (human) (compound 1.0 µM) it was 108%; on ZAP70 (human) (compound 0.1 µM) it was 92%; at ZAP70 (human) (compound 1.0 µM), 94%.
Regarding `NC(=O)c1c(NC(=O)C2CC2)sc2c1CCCC2`, the residual activity at ABL1 (human) (compound 1.0 µM) was found to be 93%; on ABL1 (human) (compound 10.0 µM), 82%; on GSK3B (human) (compound 1.0 µM) it was 90%; at GSK3B (human) (compound 10.0 µM), 42%; on PRKCG (human) (compound 1.0 µM), 98%; on PRKCG (human) (compound 10.0 µM), 110%. The residual activity stood at 114% at PTK6 (human) (compound 1.0 µM); 95% at PTK6 (human) (compound 10.0 µM); 97% at SRPK1 (human) (compound 1.0 µM); 93% at SRPK1 (human) (compound 10.0 µM); 107% on STK16 (human) (compound 1.0 µM); 92% on STK16 (human) (compound 10.0 µM). Besides, the residual activity at STK33 (human) (compound 1.0 µM) is 87%; on STK33 (human) (compound 10.0 µM), 74%; on TEK (human) (compound 10.0 µM), 75%; on ZAP70 (human) (compound 1.0 µM), 94%; on ZAP70 (human) (compound 10.0 µM), 80%.
In the case of `O=S(=O)(c1ccc(F)c2nonc12)N1CCN(c2ncc(C(F)(F)F)cc2Cl)CC1`, the residual activity amounted to 111% on ABL1 (human) (compound 10.0 µM); 85% on GSK3B (human) (compound 10.0 µM); 98% on PRKCG (human) (compound 10.0 µM); 101% at PTK6 (human) (compound 10.0 µM); 82% on SRPK1 (human) (compound 10.0 µM); 94% at STK16 (human) (compound 10.0 µM). Moreover, the residual activity at STK33 (human) (compound 10.0 µM) came out at 97%; at TEK (human) (compound 10.0 µM) it was 112%; at ZAP70 (human) (compound 10.0 µM), 85%.
As for `CC(C)C[C@H](NC(=O)CNC(=O)c1cc(Cl)ccc1Cl)B1OC(=O)CC(CC(=O)O)(C(=O)O)O1` (some centres undefined), the residual activity on ABL1 (human) (compound 10.0 µM) was 101%; at GSK3B (human) (compound 10.0 µM) it was 88%; on PRKCG (human) (compound 10.0 µM) it was 114%; at PTK6 (human) (compound 10.0 µM), 96%; on SRPK1 (human) (compound 10.0 µM), 90%; on STK16 (human) (compound 10.0 µM), 102%. Besides, the residual activity is 98% on STK33 (human) (compound 10.0 µM), 98% at TEK (human) (compound 10.0 µM) and 84% at ZAP70 (human) (compound 10.0 µM).
Take `COc1cc(O)c2c(c1)/C=C/C[C@H](O)[C@H](O)C(=O)/C=C\C[C@H](C)OC2=O`: the residual activity came to 108% at ABL1 (human) (compound 0.1 µM); 71% at ABL1 (human) (compound 1.0 µM); 102% on GSK3B (human) (compound 0.1 µM); 74% at GSK3B (human) (compound 1.0 µM); 87% on PRKCG (human) (compound 0.1 µM); 87% at PRKCG (human) (compound 1.0 µM). In addition, the residual activity was 65% on PTK6 (human) (compound 0.1 µM); 25% at PTK6 (human) (compound 1.0 µM); 104% at SRPK1 (human) (compound 0.1 µM); 88% at SRPK1 (human) (compound 1.0 µM); 103% on STK16 (human) (compound 0.1 µM); 101% on STK16 (human) (compound 1.0 µM). The residual activity came to 120% on STK33 (human) (compound 0.1 µM); 85% at STK33 (human) (compound 1.0 µM); 103% on TEK (human) (compound 0.1 µM); 93% at TEK (human) (compound 1.0 µM); 110% on ZAP70 (human) (compound 0.1 µM); 96% on ZAP70 (human) (compound 1.0 µM).
